Laboratory results as given in patent US4393225A, “AI-77 Compounds and pharmaceutically acceptable salts thereof” (Asahi Kasei Kogyo Kabushiki Kaisha, priority 1979, dated 1983).

The compounds below were run on ulcer (assay: Anti-ulcer test (restraint and water immersion ulcer in rats, i.p.)). Conditions: Rattus norvegicus, ip, read-out: % Inhibition of Ulcer.
Format: in vivo, Male Wistar rats
In short: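 Compound given intraperitoneally in saline to 24 h-fasted male Wistar rats about 150 g, followed after one hour by 6 h restraint with water immersion at 21 °C. Gastric lesions graded 0, 0.5, 1, 2 or 3 on microscopic inspection and converted to percent ulcer inhibition.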

SMILES | inhibition in vivo at 25 mg/kg [%]
CC(C)CC(NC(=O)C(O)C(O)C(N)CC(N)=O)C1Cc2cccc(O)c2C(=O)O1 (centres unmarked) [VII-1-1] | 100

Same assay, conditions: Rattus norvegicus, ip; 25 mg/kg i.p.; read-out: % Inhibition of Ulcer

SMILES | inhibition in vivo at 25 mg/kg [%]
CCOC(C(=O)NC(CC(C)C)C1Cc2cccc(O)c2C(=O)O1)C(O)C(N)CC(N)=O (centres unmarked) [VII-8-3] | 89
CC(C)CC(NC(=O)C(O)C(O)C(N)CC(=O)NCC1CCCCC1)C1Cc2cccc(O)c2C(=O)O1 (centres unmarked) [VII-1-12] | 94
CCC(=O)OC(C(=O)NC(CC(C)C)C1Cc2cccc(OC)c2C(=O)O1)C(O)C(CC(N)=O)NC(C)=O (centres unmarked) [VII-33-1] | 66
CNC(CC(N)=O)C(O)C(O)C(=O)NC(CC(C)C)C1Cc2cccc(O)c2C(=O)O1 (centres unmarked) [VII-19-1] | 100
CCNC(CC(N)=O)C(O)C(OC)C(=O)NC(CC(C)C)C1Cc2cccc(O)c2C(=O)O1 (centres unmarked) [VII-17-3] | 89
CNC(CC(N)=O)C(O)C(OC(C)=O)C(=O)NC(CC(C)C)C1Cc2cccc(O)c2C(=O)O1 (centres unmarked) [VII-20-1] | 89
CCNC(=O)CC(N)C(O)C(OC)C(=O)NC(CC(C)C)C1Cc2cccc(OC(=O)CC)c2C(=O)O1 (centres unmarked) [VII-9-1] | 66
CCCCNC(=O)CC(NC)C(O)C(O)C(=O)NC(CC(C)C)C1Cc2cccc(OCC)c2C(=O)O1 (centres unmarked) [VII-23-2] | 66
CCCCCCCCCCCCCCCCCCNC(=O)CC(N)C(O)C(O)C(=O)NC(CC(C)C)C1Cc2cccc(O)c2C(=O)O1 (centres unmarked) [VII-1-6] | 89
COC(C)CCNC(=O)CC(N)C(O)C(O)C(=O)NC(CC(C)C)C1Cc2cccc(O)c2C(=O)O1 (centres unmarked) [VII-1-26] | 94
CCCCOc1cccc2c1C(=O)OC(C(CC(C)C)NC(=O)C(OC)C(O)C(CC(=O)NCC)NCC)C2 (centres unmarked) [VII-16-4] | 44
CCCCNC(=O)CC(N)C(O)C(O)C(=O)NC(CC(C)C)C1Cc2cccc(OCC)c2C(=O)O1 (centres unmarked) [VII-5-3] | 78
CC(=O)NC(CC(N)=O)C(O)C(O)C(=O)NC(CC(C)C)C1Cc2cccc(O)c2C(=O)O1 (centres unmarked) [VII-28-1] | 78

Same assay, conditions: Rattus norvegicus, ip; 50 mg/kg i.p.; read-out: % Inhibition of Ulcer

SMILES | inhibition in vivo at 50 mg/kg [%]
CCCCOC(C(=O)NC(CC(C)C)C1Cc2cccc(O)c2C(=O)O1)C1OC(=O)CC1NCC (centres unmarked) [IIIa-25-1] | 66
CCOc1cccc2c1C(=O)OC(C(CC(C)C)NC(=O)C(OCC)C1OC(=O)CC1NC(=O)CC(C)C)C2 (centres unmarked) [IIIa-7-3] | 33
CCOc1cccc2c1C(=O)OC(C(CC(C)C)NC(=O)C(O)C1OC(=O)CC1NCCCCCO)C2 (centres unmarked) [IIIa-22-53] | 78
CC(C)CC(NC(=O)C(O)C1C=CC(=O)O1)C1Cc2cccc(OCCCBr)c2C(=O)O1 (centres unmarked) [IVa-4-19] | 44
CCC(=O)Oc1cccc2c1C(=O)OC(C(CC(C)C)NC(=O)C(OC)C1OC(=O)CC1N)C2 (centres unmarked) [IIIa-17-5] | 44
CCCCCCCCCCCCCCCCCCNC(=O)C=CC(O)C(O)C(=O)NC(CC(C)C)C1Cc2cccc(O)c2C(=O)O1 (centres unmarked) [VIII-1-3] | 44
CC(=O)OC1CCC(C(=O)NC2CC(=O)OC2C(O)C(=O)NC(CC(C)C)C2Cc3cccc(O)c3C(=O)O2)CC1 (centres unmarked) [IIIa-1-74] | 66
CCCCCCCCCCCC(=O)Oc1cccc2c1C(=O)OC(C(CC(C)C)NC(=O)C(O)C1C=CC(=O)O1)C2 (centres unmarked) [IVa-3-8] | 33
CCCC(=O)NC1CC(=O)OC1C(OC)C(=O)NC(CC(C)C)C1Cc2cccc(OCc3ccc4ccccc4c3)c2C(=O)O1 (centres unmarked) [IIIa-7-13] | 33
CCOc1cccc2c1C(=O)OC(C(CC(C)C)NC(=N)C(OC(=O)CC)C(O)C(N)CC(=O)O)C2 (centres unmarked) [Vb-6-3] | 66
CCCCCCCCC=CCCCCCCCC(=O)NC1CC(=O)OC1C(O)C(=O)NC(CC(C)C)C1Cc2cccc(OC(C)=O)c2C(=O)O1 (centres unmarked) [IIIa-4-4] | 33
CC(=O)n1cc(C(=O)NC2CC(=O)OC2C(O)C(=O)NC(CC(C)C)C2Cc3cccc(O)c3C(=O)O2)c2ccccc21 (centres unmarked) [IIIa-1-17] | 66
CCCCOc1cccc2c1C(=O)OC(C(CC(C)C)NC(=O)C(OC)C1OC(=O)CC1NCC)C2 (centres unmarked) [IIIa-24-16] | 56
CCOc1cccc2c1C(=O)OC(C(CC(C)C)NC(=O)C(O)C1OC(=O)CC1NC(=O)c1cccs1)C2 (centres unmarked) [IIIa-5-25] | 44
CCOc1cccc2c1C(=O)OC(C(CC(C)C)NC(=N)C(OC(=O)C(C)C)C(O)C(N)CC(=O)O)C2 (centres unmarked) [Vb-6-2] | 66
CCCCNC1CC(=O)OC1C(O)C(=O)NC(CC(C)C)C1Cc2cccc(OCCCC)c2C(=O)O1 (centres unmarked) [IIIa-22-76] | 94
CCCCOc1cccc2c1C(=O)OC(C(CC(C)C)NC(=O)C(O)C1OC(=O)CC1N)C2 (centres unmarked) [IIIa-13-3] | 100
CCCCCCCCCCCCCCCCCCNC1CC(=O)OC1C(OCCCC)C(=O)NC(CC(C)C)C1Cc2cccc(OC(C)=O)c2C(=O)O1 (centres unmarked) [IIIa-26-3] | 44
CCCCCCCCCCCCCCCCCC(=O)NC1CC(=O)OC1C(OC(C)=O)C(=O)NC(CC(C)C)C1Cc2cccc(OC(C)=O)c2C(=O)O1 (centres unmarked) [IIIa-3-4] | 22
CC(C)CC(NC(=O)C(O)C1OC(=O)CC1N)C1Cc2cccc(OCCc3ccccc3)c2C(=O)O1 (centres unmarked) [IIIa-13-12] | 89
CCOC(=O)CCC(=O)NC1CC(=O)OC1C(O)C(=O)NC(CC(C)C)C1Cc2cccc(O)c2C(=O)O1 (centres unmarked) [IIIa-1-36] | 66
CCCCCCCCCCCCCCCCCC(=O)Oc1cccc2c1C(=O)OC(C(CC(C)C)NC(=O)C(O)C1OC(=O)CC1N)C2 (centres unmarked) [IIIa-12-3] | 66
CCCCCc1ccc(COc2cccc3c2C(=O)OC(C(CC(C)C)NC(=O)C(O)C2OC(=O)CC2NC(=O)CCC)C3)cc1 (centres unmarked) [IIIa-5-119] | 33
CC(C)CC(NC(=O)C(O)C1OC(=O)CC1N)C1Cc2cccc(OCc3ccco3)c2C(=O)O1 (centres unmarked) [IIIa-13-13] | 89
CC(=O)Oc1cccc2c1C(=O)OC(C(CC(C)C)NC(=O)C(OC(C)=O)C1OC(=O)CC1NCC(Cl)(Cl)Cl)C2 (centres unmarked) [IIIa-20-10] | 56
CCCCCCCC(=O)NC1CC(=O)OC1C(O)C(=O)NC(CC(C)C)C1Cc2cccc(O)c2C(=O)O1 (centres unmarked) [IIIa-1-9] | 66

SMILES | inhibition in vivo at 50 mg/kg [%]
CCCCCSCCNC1CC(=O)OC1C(O)C(=O)NC(CC(C)C)C1Cc2cccc(OCC)c2C(=O)O1 (centres unmarked) [IIIa-22-40] | 94
CCOC(C(=N)NC(CC(C)C)C1Cc2cccc(OCCC(C)OC)c2C(=O)O1)C(O)C(N)CC(=O)O (centres unmarked) [Vb-9-3] | 66
CCNC1CC(=O)OC1C(OC)C(=O)NC(CC(C)C)C1Cc2cccc(OC(=O)C(C)C)c2C(=O)O1 (centres unmarked) [IIIa-26-9] | 56
CC(=O)Oc1cccc2c1C(=O)OC(C(CC(C)C)NC(=O)C(O)C1OC(=O)CC1NC(=O)C1CCCO1)C2 (centres unmarked) [IIIa-4-5] | 33
CCOc1cccc2c1C(=O)OC(C(CC(C)C)NC(=O)C(O)C1OC(=O)CC1NC(=O)CC1CCCCO1)C2 (centres unmarked) [IIIa-5-24] | 44
CCCCOc1cccc2c1C(=O)OC(C(CC(C)C)NC(=O)C(OC)C1OC(=O)CC1NC(C)=O)C2 (centres unmarked) [IIIa-7-16] | 33
CCCCCc1ccc(C(=O)NC2CC(=O)OC2C(O)C(=O)NC(CC(C)C)C2Cc3cccc(O)c3C(=O)O2)cc1 (centres unmarked) [IIIa-1-76] | 66
CCCCCCCCCCCCCCCCCCOc1cccc2c1C(=O)OC(C(CC(C)C)NC(=O)C(OCCCC)C1OC(=O)CC1N)C2 (centres unmarked) [IIIa-15-3] | 44
COC(=O)c1ccc(C(=O)NC2CC(=O)OC2C(O)C(=O)NC(CC(C)C)C2Cc3cccc(O)c3C(=O)O2)cc1 (centres unmarked) [IIIa-1-50] | 66
CC(C)CC(NC(=O)C(O)C1OC(=O)CC1NC(=O)c1ccc2ccccc2c1)C1Cc2cccc(O)c2C(=O)O1 (centres unmarked) [IIIa-1-15] | 44
CC(C)CC(NC(=O)C(O)C(O)C=CC(=O)NCc1cccc(Cl)c1)C1Cc2cccc(O)c2C(=O)O1 (centres unmarked) [VIII-1-4] | 44
CCCCCCCCCCCCCCCCCCOc1cccc2c1C(=O)OC(C(CC(C)C)NC(=O)C(O)C1OC(=O)CC1NCCCC)C2 (centres unmarked) [IIIa-22-78] | 72
CC(C)CC(NC(=O)C(O)C1OC(=O)CC1NC(=O)C1CCCCC1=O)C1Cc2cccc(O)c2C(=O)O1 (centres unmarked) [IIIa-1-33] | 66
CC(C)CC(NC(=O)C(O)C1C=CC(=O)O1)C1Cc2cccc(OCCc3ccccc3)c2C(=O)O1 (centres unmarked) [IVa-4-12] | 44
CCCCCCC(=O)OC(C(=O)NC(CC(C)C)C1Cc2cccc(O)c2C(=O)O1)C1C=CC(=O)O1 (centres unmarked) [IVa-1-8] | 33
CC(C)CC(NC(=O)C(O)C1OC(=O)CC1NC(=O)C12CC3CC(CC(C3)C1)C2)C1Cc2cccc(O)c2C(=O)O1 (centres unmarked) [IIIa-1-16] | 56
COc1ccc2ncc(C(=O)NC3CC(=O)OC3C(O)C(=O)NC(CC(C)C)C3Cc4cccc(O)c4C(=O)O3)cc2c1 (centres unmarked) [IIIa-1-30] | 56
CCCC(=O)NC1CC(=O)OC1C(OC)C(=O)NC(CC(C)C)C1Cc2cccc(OCC3CCCCO3)c2C(=O)O1 (centres unmarked) [IIIa-7-14] | 33
CCCCOc1cccc2c1C(=O)OC(C(CC(C)C)NC(=O)C(O)C1OC(=O)CC1NC(C)=O)C2 (centres unmarked) [IIIa-5-3] | 44
COc1cccc2c1C(=O)OC(C(CC(C)C)NC(=O)C(O)C1OC(=O)CC1NC(C)=O)C2 (centres unmarked) [IIIa-5-5] | 44
CC(C)CC(NC(=O)C(O)C1OC(=O)CC1N)C1Cc2cccc(OC(=O)C3CCCO3)c2C(=O)O1 (centres unmarked) [IIIa-12-5] | 78
COC(C)CC(=O)Oc1cccc2c1C(=O)OC(C(CC(C)C)NC(=N)C(O)C(O)C(N)CC(=O)O)C2 (centres unmarked) [Vb-4-3] | 66
CCOc1cccc2c1C(=O)OC(C(CC(C)C)NC(=N)C(O)C(O)C(CC(=O)O)NC)C2 (centres unmarked) [Vb-23-1] | 89
CCCCCCCCCCCCCCCCCC(=O)NC1CC(=O)OC1C(OCC)C(=O)NC(CC(C)C)C1Cc2cccc(OCCCCCCC)c2C(=O)O1 (centres unmarked) [IIIa-7-4] | 22
COC(C(=O)NC(CC(C)C)C1Cc2cccc(O)c2C(=O)O1)C1OC(=O)CC1NCC(Cl)(Cl)Cl (centres unmarked) [IIIa-25-10] | 66
